Converted amounts (≈) assume the structure as drawn. The source made the active and inactive calls. The calls are words filed in the database; no cut-off is given here.
Legend:
HaCaT [1] = experiment: Cytotoxicity against human HaCaT cells assessed as reduction in cell viability measured at 64 to 128 uM measured for 24 hrs by MTT assay; type: toxicity, cell-based; conditions: dose 64-128 µM
Staphylococcus aureus [2] = experiment: Antibacterial activity against Staphylococcus aureus ATCC 6538 assessed as reduction in microbial growth measured for 16 to 20 hrs by microdilution assay; type: functional; conditions: time 16-20 hrs
Staphylococcus aureus [3] = experiment: Antibacterial activity against Staphylococcus aureus ATCC 25923 assessed as reduction in microbial growth measured for 16 to 20 hrs by microdilution assay; type: functional; conditions: time 16-20 hrs
Staphylococcus aureus [4] = experiment: Antibacterial activity against Staphylococcus aureus ATCC 29213 assessed as reduction in microbial growth measured for 16 to 20 hrs by microdilution assay; type: functional; conditions: time 16-20 hrs
Staphylococcus aureus [5] = experiment: Antibacterial activity against methicillin-resistant Staphylococcus aureus ATCC 43300 assessed as reduction in microbial growth measured for 16 to 20 hrs by microdilution assay; type: functional; conditions: time 16-20 hrs
Staphylococcus aureus [6] = experiment: Antibacterial activity against methicillin-resistant Staphylococcus aureus ATCC 33592 assessed as reduction in microbial growth measured for 16 to 20 hrs by microdilution assay; type: functional; conditions: time 16-20 hrs
[7] = test system: Staphylococcus epidermidis; experiment: Antibacterial activity against Staphylococcus epidermidis ATCC 35984 assessed as reduction in microbial growth measured for 16 to 20 hrs by microdilution assay; type: functional; conditions: time 16-20 hrs
[8] = test system: Staphylococcus epidermidis; experiment: Antibacterial activity against Staphylococcus epidermidis ATCC 12228 assessed as reduction in microbial growth measured for 16 to 20 hrs by microdilution assay; type: functional; conditions: time 16-20 hrs
[9] = test system: Staphylococcus epidermidis; experiment: Antibacterial activity against Staphylococcus epidermidis ATCC 49134 assessed as reduction in microbial growth measured for 16 to 20 hrs by microdilution assay; type: functional; conditions: time 16-20 hrs
Staphylococcus aureus [10] = experiment: Bactericidal activity against methicillin-resistant Staphylococcus aureus ATCC 43300 measured for 24 hrs by time kill assay; type: functional, organism-based
HaCaT [11] = experiment: Cytotoxicity against human HaCaT cells assessed as reduction in cell viability measured at 128 uM measured for 24 hrs by MTT assay; type: toxicity, cell-based
Staphylococcus aureus [12] = experiment: Antibacterial activity against methicillin-resistant Staphylococcus aureus ATCC 43300 assessed as reduction in microbial growth by microdilution assay; type: functional
Klebsiella pneumoniae = experiment: Antibacterial activity against Klebsiella pneumoniae ATCC 700603 assessed as inhibition of bacterial growth measured for 16 to 20 hrs by microdilution assay; type: functional; conditions: time 16-20 hrs
Pseudomonas aeruginosa [13] = experiment: Antibacterial activity against Pseudomonas aeruginosa ATCC 10145 assessed as inhibition of bacterial growth measured for 16 to 20 hrs by microdilution assay; type: functional; conditions: time 16-20 hrs
Escherichia coli = experiment: Antibacterial activity against Escherichia coli ATCC 25922 assessed as inhibition of bacterial growth measured for 16 to 20 hrs by microdilution assay; type: functional; conditions: time 16-20 hrs
[14] = Metabolic stability in rat liver microsome assessed as parent compound remaining at 50 uM incubated for 1 hr in presence of NADPH regenerating system and GSH by LC-UV analysis; type: ADME; conditions: liver microsomes, read-out: Stability
[15] = Metabolic stability in human plasma assessed as parent compound remaining at 50 uM incubated for 60 mins by LC-UV analysis; type: ADME, cell-free; conditions: read-out: Stability
Staphylococcus aureus [16] = experiment: Bactericidal activity against methicillin-resistant Staphylococcus aureus ATCC 43300 incubated for 24 hrs by time kill assay; type: functional
Staphylococcus aureus [17] = experiment: Additive antibacterial activity against methicillin-resistant Staphylococcus aureus assessed as fractional inhibitory concentration index in presence of tetracycline by checker board method; type: functional
Staphylococcus aureus [18] = experiment: Resistance development in methicillin-resistant Staphylococcus aureus ATCC 43300 assessed as fold increase in MIC after 10 passage; type: functional
Staphylococcus aureus [19] = experiment: Antibacterial activity against Staphylococcus aureus ATCC 6538 assessed as reduction in cell surface hydrophobicity; type: functional, organism-based
Staphylococcus aureus [20] = experiment: Induction of cell membrane permeability in Staphylococcus aureus ATCC 6538; type: functional, organism-based
Staphylococcus aureus [21] = experiment: Anti-biofilm activity in Staphylococcus aureus ATCC 6538 assessed as inhibition of biofilm formation at 16 uM measured for 24 hrs by MTT assay; type: functional; set-up: scale not given: the % may be the effect or the level left
Staphylococcus aureus [22] = experiment: Anti-biofilm activity in Staphylococcus aureus ATCC 6538 assessed as inhibition of biofilm formation at 128 uM measured for 24 hrs by MTT assay; type: functional; set-up: scale not given: the % may be the effect or the level left
Staphylococcus aureus [23] = experiment: Anti-biofilm activity in Staphylococcus aureus ATCC 6538 assessed as inhibition of biofilm formation upto 128 uM measured for 24 hrs by MTT assay; type: functional, organism-based
Osteoblast [24] = experiment: Cytotoxicity against human Osteoblast cells assessed as reduction in cell viability measured at 64 to 128 uM measured for 24 hrs by MTT assay; type: toxicity, cell-based; conditions: dose 64-128 µM
Osteoblast [25] = experiment: Cytotoxicity against human Osteoblast cells assessed as reduction in cell viability measured at 128 uM measured for 24 hrs by MTT assay; type: toxicity, cell-based
Pseudomonas aeruginosa [26] = experiment: Antibacterial activity against Pseudomonas aeruginosa assessed as inhibition of bacterial growth; type: functional
Acinetobacter baumannii = experiment: Antibacterial activity against Acinetobacter baumannii assessed as inhibition of bacterial growth; type: functional
Clostridium tetani = experiment: Antibacterial activity against Clostridium tetani assessed as inhibition of bacterial growth; type: functional
[27] = test system: Clavibacter michiganensis; experiment: Antibacterial activity against Clavibacter michiganensis assessed as inhibition of bacterial growth; type: functional

| Compound | MIC (Staphylococcus aureus [2]) [µM] | MIC (Staphylococcus aureus [3]) [µM] | MIC (Staphylococcus aureus [4]) [µM] | MIC (Staphylococcus aureus [5]) [µM] | MIC (Staphylococcus aureus [6]) [µM] | MIC [7] [µM] | MIC [8] [µM] | MIC [9] [µM] | MIC (Klebsiella pneumoniae) [µM] | MIC (Pseudomonas aeruginosa [13]) [µM] | MIC (Escherichia coli) [µM] | other results |
| --- | --- | --- | --- | --- | --- | --- | --- | --- | --- | --- | --- | --- |
| [C-]#[N+]c1ccc(/C=C/c2ccccc2)cc1 | 8 | 4 | 8 | 8 | 8 | 1 | 2 | 1 |  |  |  | Activity (HaCaT [1]): Non-Toxic; Activity (Staphylococcus aureus [10]): Active; Activity (HaCaT [11]): < 70% |
| O=C(O)c1cn(C2CC2)c2cc(N3CCNCC3)c(F)cc2c1=O [CIPROFLOXACIN] | 0.38 | 0.75 | 0.75 | 0.75 | 0.75 | 0.19 | 0.38 | 0.38 |  |  |  | MIC (Staphylococcus aureus [12]): 1 µM |
| [C-]#[N+]c1ccc(NC(=O)Cc2ccccc2)cc1 | > 8 | 8 | > 8 | > 8 | > 8 | 1 | 2 | 1 | ≥ 64 | ≥ 64 | ≥ 64 | remaining at 1 h, 50 µM [14]: 20%; remaining at 1 h, 50 µM [15]: > 99% |
| [C-]#[N+]c1ccc(NC(=O)c2ccncc2)cc1 | > 8 | > 8 | > 8 |  |  |  |  |  | ≥ 64 | ≥ 64 | ≥ 64 | remaining at 1 h, 50 µM [14]: 29%; remaining at 1 h, 50 µM [15]: > 99% |
| [C-]#[N+]c1ccc(C(=O)NCc2ccccc2)cc1 | > 8 | > 8 | > 8 |  |  |  |  |  | ≥ 64 | ≥ 64 | ≥ 64 | remaining at 1 h, 50 µM [14]: 29%; remaining at 1 h, 50 µM [15]: 91% |
| [C-]#[N+]c1ccc(NC(=O)COc2ccccc2)cc1 | 8 | 2 | 8 | 2 | 4 | 0.25 | 0.5 | 0.25 | ≥ 64 | ≥ 64 | ≥ 64 | Activity (HaCaT [1]): Non-Toxic; Activity (Staphylococcus aureus [16]): >=99.9%; Activity (Staphylococcus aureus [10]): Active; fractional inhibitory concentration index (FICI) (Staphylococcus aureus [17]): 0.75; fold change (FC) (Staphylococcus aureus [18]): >4; MIC (Staphylococcus aureus [12]): 4 µM; Activity (Staphylococcus aureus [19]): inactive; Activity (Staphylococcus aureus [20]): Active; Activity (Staphylococcus aureus [21]): 10%; Activity (Staphylococcus aureus [22]): 94%; Activity (Staphylococcus aureus [23]): inactive; Activity (Osteoblast [24]): Non-Toxic; Activity (HaCaT [11]): < 70%; Activity (Osteoblast [25]): > 70% |
| [C-]#[N+]C(=C\c1ccc(O)cc1)/C(=C/c1ccc(O)cc1)[N+]#[C-] [XANTOCILLIN] |  |  |  |  |  |  |  |  |  |  |  | MIC (Pseudomonas aeruginosa [26]): 0.69 µM (≈ 0.199 µg/mL); MIC (Acinetobacter baumannii): 0.25 µM (≈ 0.0721 µg/mL); MIC (Clostridium tetani): 0.69 µM (≈ 0.199 µg/mL) |
| [C-]#[N+]c1ccc(NC(=O)CCCCCCCC)cc1 | 8 | 2 | 8 | 4 | 8 | 0.5 | 1 | 0.5 | ≥ 64 | ≥ 64 | ≥ 64 |  |
| [C-]#[N+]c1ccc(NC(=O)Cc2ccc(Cl)cc2)cc1 | 8 | 2 | 8 | 4 | 8 | 0.25 | 0.5 | 0.25 | ≥ 64 | ≥ 64 | ≥ 64 |  |
| [C-]#[N+]C(=C)[C@@](Cc1ccc(OC)cc1)([N+]#[C-])[C@@H]1C[C@@H](OC(=O)CO)CC[C@@H]1O |  |  |  |  |  |  |  |  |  |  |  | MIC (Pseudomonas aeruginosa [26]): 0.52 µM (≈ 0.2 µg/mL); MIC (Acinetobacter baumannii): 0.52 µM (≈ 0.2 µg/mL) |
| [C-]#[N+]C(=C\c1ccc(O)cc1)/C(=C/c1ccc2c(c1)CCC(C)(C)O2)[N+]#[C-] |  |  |  |  |  |  |  |  |  |  |  | MIC [27]: 0.87 µM (≈ 0.31 µg/mL) |
| [C-]#[N+]c1ccc(NC(=O)Cc2ccc([N+](=O)[O-])cc2)cc1 | 8 | 2 | 8 | 4 | 8 | 0.5 | 1 | 0.5 | ≥ 64 | ≥ 64 | ≥ 64 |  |
| COc1cc(Cc2cnc(N)nc2N)cc(OC)c1OC |  |  |  |  |  |  |  |  |  |  |  | Activity (Staphylococcus aureus [23]): inactive |
| [C-]#[N+]c1ccc(NC(=O)CCCCC)cc1 | > 8 | 8 | > 8 | > 8 | > 8 | 1 | 1 | 1 | ≥ 64 | ≥ 64 | ≥ 64 |  |
| [C-]#[N+]c1ccc(NC(=O)CCc2ccc(Br)cc2)cc1 | 8 | 8 | 8 | 8 | 8 | 2 | 2 | 2 | ≥ 64 | ≥ 64 | ≥ 64 |  |
| [C-]#[N+]c1ccc(NC(=O)CCc2ccccc2)cc1 | 8 | 4 | 8 | 8 | > 8 | 1 | 2 | 2 | ≥ 64 | ≥ 64 | ≥ 64 |  |
| [C-]#[N+]c1ccc(NC(=O)Cc2ccc3c(c2)OCO3)cc1 | 8 | 4 | 8 | 8 | 8 | 1 | 1 | 1 | ≥ 64 | ≥ 64 | ≥ 64 |  |
| [C-]#[N+]c1ccc(NC(=O)Cc2cccc(C#N)c2)cc1 | 8 | 4 | 8 | 8 | 8 | 2 | 2 | 2 | ≥ 64 | ≥ 64 | ≥ 64 |  |

Source: ChEMBL document CHEMBL5352456, “Isocyanides in med chem: A scaffold hopping approach for the identification of novel 4-isocyanophenylamides as potent antibacterial agents against methicillin-resistant Staphylococcusaureus” (Eur J Med Chem, 2023)
